{"source": "paper PMC7385619", "about": "“A triple action CDK4/6-PI3K-BET inhibitor with augmented cancer cell cytotoxicity” (Cell Discovery, 2020)", "assay_in_all_cases": "KINOMEscan assay (Eurofins DiscoverX)", "assay_type_in_all_cases": "binding", "key": {"kinome (kinase panel) [1]": {"target": "T1, kinome (kinase panel) (Homo sapiens, UniProt O15111)", "T1 construct": "purchased Eurofins DiscoverX", "settings": "IKK-alpha (Entrez CHUK); 1000 nM; read-out: Percent Control"}, "kinome (kinase panel) [2]": {"target": "T2, kinome (kinase panel) (Homo sapiens, UniProt O43683)", "T2 construct": "purchased Eurofins DiscoverX", "settings": "BUB1; 1000 nM; read-out: Percent Control"}, "kinome (kinase panel) [3]": {"target": "T3, kinome (kinase panel) (Homo sapiens, UniProt O75747)", "T3 construct": "purchased Eurofins DiscoverX", "settings": "PIK3C2G; 1000 nM; read-out: Percent Control"}, "kinome (kinase panel) [4]": {"target": "T4, kinome (kinase panel) (Homo sapiens, UniProt O75914)", "T4 construct": "purchased Eurofins DiscoverX", "settings": "PAK3; 1000 nM; read-out: Percent Control"}, "kinome (kinase panel) [5]": {"target": "T5, kinome (kinase panel) (Homo sapiens, UniProt P00519, F317I)", "T5 construct": "purchased Eurofins DiscoverX"}, "kinome (kinase panel) [6]": {"target": "T6, kinome (kinase panel) (Homo sapiens, UniProt P00519, H396P)", "T6 construct": "purchased Eurofins DiscoverX"}, "kinome (kinase panel) [7]": {"target": "T7, kinome (kinase panel) (Homo sapiens, UniProt P0C264)", "T7 construct": "purchased Eurofins DiscoverX", "settings": "SgK110; 1000 nM; read-out: Percent Control"}, "kinome (kinase panel) [8]": {"target": "T8, kinome (kinase panel) (Homo sapiens, UniProt P10721, V559D)", "T8 construct": "purchased Eurofins DiscoverX", "settings": "[…]; 1000 nM; read-out: Percent Control"}, "kinome (kinase panel) [9]": {"target": "T9, kinome (kinase panel) (Homo sapiens, UniProt P35626)", "T9 construct": "purchased Eurofins DiscoverX", "settings": "GRK3 (Entrez ADRBK2); 1000 nM; read-out: Percent Control"}, "kinome (kinase panel) [10]": {"target": "T10, kinome (kinase panel) (Homo sapiens, UniProt P36897)", "T10 construct": "purchased Eurofins DiscoverX", "settings": "TGFBR1; 1000 nM; read-out: Percent Control"}, "kinome (kinase panel) [11]": {"target": "T11, kinome (kinase panel) (Homo sapiens, UniProt P42336, E545A)", "T11 construct": "purchased Eurofins DiscoverX", "T11 sequence (P42336 whole entry E545A)": "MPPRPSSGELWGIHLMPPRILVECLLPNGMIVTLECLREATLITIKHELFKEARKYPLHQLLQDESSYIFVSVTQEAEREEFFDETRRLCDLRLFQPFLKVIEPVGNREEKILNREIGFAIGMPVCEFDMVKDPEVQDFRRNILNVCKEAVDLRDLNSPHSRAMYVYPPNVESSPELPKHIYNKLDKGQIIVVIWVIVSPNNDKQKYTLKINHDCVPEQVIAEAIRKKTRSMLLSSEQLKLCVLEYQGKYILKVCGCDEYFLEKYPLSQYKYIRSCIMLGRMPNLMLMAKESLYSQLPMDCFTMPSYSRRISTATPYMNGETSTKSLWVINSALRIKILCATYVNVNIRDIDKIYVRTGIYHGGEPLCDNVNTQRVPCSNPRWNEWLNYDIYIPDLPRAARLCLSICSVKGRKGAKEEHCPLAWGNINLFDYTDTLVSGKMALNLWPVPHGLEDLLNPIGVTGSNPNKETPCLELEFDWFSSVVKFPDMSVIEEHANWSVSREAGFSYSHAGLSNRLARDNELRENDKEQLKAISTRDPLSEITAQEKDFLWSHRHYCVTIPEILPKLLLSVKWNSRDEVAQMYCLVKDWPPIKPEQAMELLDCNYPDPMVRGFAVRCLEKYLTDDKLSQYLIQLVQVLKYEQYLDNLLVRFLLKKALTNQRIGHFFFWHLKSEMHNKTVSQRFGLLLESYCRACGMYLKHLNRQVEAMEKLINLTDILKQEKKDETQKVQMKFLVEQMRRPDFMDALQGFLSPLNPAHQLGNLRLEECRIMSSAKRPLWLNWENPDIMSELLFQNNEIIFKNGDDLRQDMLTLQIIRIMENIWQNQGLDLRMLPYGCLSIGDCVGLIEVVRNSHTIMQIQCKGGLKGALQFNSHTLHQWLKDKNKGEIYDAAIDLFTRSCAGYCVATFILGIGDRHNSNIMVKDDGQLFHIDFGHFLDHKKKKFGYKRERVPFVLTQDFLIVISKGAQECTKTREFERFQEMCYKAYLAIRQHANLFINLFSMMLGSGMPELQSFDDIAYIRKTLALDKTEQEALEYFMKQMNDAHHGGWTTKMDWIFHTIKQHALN", "settings": "read-out: Percent Control"}, "kinome (kinase panel) [12]": {"target": "T12, kinome (kinase panel) (Homo sapiens, UniProt P42680)", "T12 construct": "purchased Eurofins DiscoverX", "settings": "TEC; 1000 nM; read-out: Percent Control"}, "kinome (kinase panel) [13]": {"target": "T13, kinome (kinase panel) (Homo sapiens, UniProt P42681)", "T13 construct": "purchased Eurofins DiscoverX", "settings": "TXK; 1000 nM; read-out: Percent Control"}, "kinome (kinase panel) [14]": {"target": "T14, kinome (kinase panel) (Homo sapiens, UniProt P48736)", "T14 construct": "purchased Eurofins DiscoverX", "settings": "PIK3CG; 1000 nM; read-out: Percent Control"}, "kinome (kinase panel) [15]": {"target": "T15, kinome (kinase panel) (Homo sapiens, UniProt P49336)", "T15 construct": "purchased Eurofins DiscoverX", "settings": "CDK8; 1000 nM; read-out: Percent Control"}, "kinome (kinase panel) [16]": {"target": "T16, kinome (kinase panel) (Homo sapiens, UniProt P53779)", "T16 construct": "purchased Eurofins DiscoverX", "settings": "JNK3 (Entrez MAPK10); 1000 nM; read-out: Percent Control"}, "kinome (kinase panel) [17]": {"target": "T17, kinome (kinase panel) (Homo sapiens, UniProt P78362)", "T17 construct": "purchased Eurofins DiscoverX", "T17 sequence (P78362 whole entry)": "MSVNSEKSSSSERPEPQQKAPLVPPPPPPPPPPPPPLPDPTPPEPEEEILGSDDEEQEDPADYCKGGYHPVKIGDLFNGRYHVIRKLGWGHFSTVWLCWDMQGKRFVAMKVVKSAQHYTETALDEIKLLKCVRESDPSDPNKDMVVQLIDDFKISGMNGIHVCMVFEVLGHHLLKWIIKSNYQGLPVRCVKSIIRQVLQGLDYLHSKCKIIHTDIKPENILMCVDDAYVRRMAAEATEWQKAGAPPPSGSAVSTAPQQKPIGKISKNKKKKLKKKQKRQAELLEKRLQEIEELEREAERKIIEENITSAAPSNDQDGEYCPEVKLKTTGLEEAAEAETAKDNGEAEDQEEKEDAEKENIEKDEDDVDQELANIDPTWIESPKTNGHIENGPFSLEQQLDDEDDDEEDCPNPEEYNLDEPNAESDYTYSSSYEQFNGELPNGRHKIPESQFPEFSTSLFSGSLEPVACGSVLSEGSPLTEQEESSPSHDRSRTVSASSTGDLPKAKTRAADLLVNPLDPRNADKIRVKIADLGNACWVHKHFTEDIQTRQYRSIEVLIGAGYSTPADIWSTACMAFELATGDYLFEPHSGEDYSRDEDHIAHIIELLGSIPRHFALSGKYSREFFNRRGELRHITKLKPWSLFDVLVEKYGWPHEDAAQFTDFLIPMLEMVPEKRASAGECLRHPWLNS", "settings": "SRPK2; 1000 nM; read-out: Percent Control"}, "kinome (kinase panel) [18]": {"target": "T18, kinome (kinase panel) (Homo sapiens, UniProt Q04759)", "T18 construct": "purchased Eurofins DiscoverX", "T18 sequence (Q04759 whole entry)": "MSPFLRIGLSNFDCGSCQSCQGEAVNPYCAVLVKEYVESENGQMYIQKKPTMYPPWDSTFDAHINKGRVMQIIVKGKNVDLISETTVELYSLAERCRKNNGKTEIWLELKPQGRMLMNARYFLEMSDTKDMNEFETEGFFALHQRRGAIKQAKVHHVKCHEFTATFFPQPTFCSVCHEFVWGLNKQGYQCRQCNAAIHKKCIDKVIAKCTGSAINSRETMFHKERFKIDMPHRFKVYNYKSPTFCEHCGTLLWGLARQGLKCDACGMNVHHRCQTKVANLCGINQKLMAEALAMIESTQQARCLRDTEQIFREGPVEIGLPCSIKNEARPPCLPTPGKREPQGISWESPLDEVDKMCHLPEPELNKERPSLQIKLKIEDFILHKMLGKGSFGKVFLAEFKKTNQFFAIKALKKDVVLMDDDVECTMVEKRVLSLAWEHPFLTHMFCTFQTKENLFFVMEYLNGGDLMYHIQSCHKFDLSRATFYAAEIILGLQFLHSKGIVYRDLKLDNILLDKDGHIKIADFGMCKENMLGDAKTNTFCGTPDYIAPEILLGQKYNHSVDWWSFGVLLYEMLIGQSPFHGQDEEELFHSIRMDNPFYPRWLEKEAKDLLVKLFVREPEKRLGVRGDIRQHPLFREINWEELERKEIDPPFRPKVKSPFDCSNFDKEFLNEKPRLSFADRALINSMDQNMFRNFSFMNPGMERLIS", "settings": "PRKCQ; 1000 nM; read-out: Percent Control"}, "kinome (kinase panel) [19]": {"target": "T19, kinome (kinase panel) (Homo sapiens, UniProt Q06418)", "T19 construct": "purchased Eurofins DiscoverX", "settings": "TYRO3; 1000 nM; read-out: Percent Control"}, "kinome (kinase panel) [20]": {"target": "T20, kinome (kinase panel) (Homo sapiens, UniProt Q13233)", "T20 construct": "purchased Eurofins DiscoverX", "settings": "MAP3K1; 1000 nM; read-out: Percent Control"}, "kinome (kinase panel) [21]": {"target": "T21, kinome (kinase panel) (Homo sapiens, UniProt Q13237)", "T21 construct": "purchased Eurofins DiscoverX", "T21 sequence (Q13237 whole entry)": "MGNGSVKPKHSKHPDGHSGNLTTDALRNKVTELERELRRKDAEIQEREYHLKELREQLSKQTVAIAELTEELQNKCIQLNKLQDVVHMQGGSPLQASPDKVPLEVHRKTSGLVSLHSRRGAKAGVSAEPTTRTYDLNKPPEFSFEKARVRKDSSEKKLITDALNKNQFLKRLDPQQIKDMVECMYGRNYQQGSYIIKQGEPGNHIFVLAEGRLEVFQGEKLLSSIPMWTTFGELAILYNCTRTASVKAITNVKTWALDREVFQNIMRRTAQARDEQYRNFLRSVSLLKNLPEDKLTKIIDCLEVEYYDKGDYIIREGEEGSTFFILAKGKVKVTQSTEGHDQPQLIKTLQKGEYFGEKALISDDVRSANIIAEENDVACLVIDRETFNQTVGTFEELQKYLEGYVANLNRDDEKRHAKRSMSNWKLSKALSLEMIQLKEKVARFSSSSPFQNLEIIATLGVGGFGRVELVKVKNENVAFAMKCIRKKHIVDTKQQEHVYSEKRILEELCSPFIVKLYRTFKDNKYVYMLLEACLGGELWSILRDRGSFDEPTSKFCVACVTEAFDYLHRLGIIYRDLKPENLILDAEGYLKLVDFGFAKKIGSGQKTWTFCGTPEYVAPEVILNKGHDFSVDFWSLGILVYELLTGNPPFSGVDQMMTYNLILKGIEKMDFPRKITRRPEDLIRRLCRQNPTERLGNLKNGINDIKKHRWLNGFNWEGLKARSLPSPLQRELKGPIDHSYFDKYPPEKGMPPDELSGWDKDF", "settings": "PRKG2; 1000 nM; read-out: Percent Control"}, "kinome (kinase panel) [22]": {"target": "T22, kinome (kinase panel) (Homo sapiens, UniProt Q13873)", "T22 construct": "purchased Eurofins DiscoverX", "settings": "BMPR2; 1000 nM; read-out: Percent Control"}, "kinome (kinase panel) [23]": {"target": "T23, kinome (kinase panel) (Homo sapiens, UniProt Q16288)", "T23 construct": "purchased Eurofins DiscoverX", "settings": "TRKC (NTRK3); 1000 nM; read-out: Percent Control"}, "kinome (kinase panel) [24]": {"target": "T24, kinome (kinase panel) (Homo sapiens, UniProt Q16513)", "T24 construct": "purchased Eurofins DiscoverX", "settings": "PKN2; 1000 nM; read-out: Percent Control"}, "kinome (kinase panel) [25]": {"target": "T25, kinome (kinase panel) (Homo sapiens, UniProt Q6P2M8)", "T25 construct": "purchased Eurofins DiscoverX", "T25 sequence (Q6P2M8 whole entry)": "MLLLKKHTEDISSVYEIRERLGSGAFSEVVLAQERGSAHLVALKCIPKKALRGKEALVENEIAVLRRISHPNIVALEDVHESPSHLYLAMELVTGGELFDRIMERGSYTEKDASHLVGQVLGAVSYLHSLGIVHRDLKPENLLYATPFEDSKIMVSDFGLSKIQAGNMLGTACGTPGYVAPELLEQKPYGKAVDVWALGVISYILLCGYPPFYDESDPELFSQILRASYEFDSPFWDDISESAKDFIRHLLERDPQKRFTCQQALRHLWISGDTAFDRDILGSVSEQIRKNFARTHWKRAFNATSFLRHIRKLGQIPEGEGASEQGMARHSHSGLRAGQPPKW", "settings": "CAMK1B (Entrez PNCK); 1000 nM; read-out: Percent Control"}, "kinome (kinase panel) [26]": {"target": "T26, kinome (kinase panel) (Homo sapiens, UniProt Q86Z02)", "T26 construct": "purchased Eurofins DiscoverX", "settings": "HIPK1; 1000 nM; read-out: Percent Control"}, "kinome (kinase panel) [27]": {"target": "T27, kinome (kinase panel) (Homo sapiens, UniProt Q8N4C8)", "T27 construct": "purchased Eurofins DiscoverX", "settings": "MINK (Entrez MINK1); 1000 nM; read-out: Percent Control"}, "kinome (kinase panel) [28]": {"target": "T28, kinome (kinase panel) (Homo sapiens, UniProt Q8N5S9)", "T28 construct": "purchased Eurofins DiscoverX", "T28 sequence (Q8N5S9 whole entry)": "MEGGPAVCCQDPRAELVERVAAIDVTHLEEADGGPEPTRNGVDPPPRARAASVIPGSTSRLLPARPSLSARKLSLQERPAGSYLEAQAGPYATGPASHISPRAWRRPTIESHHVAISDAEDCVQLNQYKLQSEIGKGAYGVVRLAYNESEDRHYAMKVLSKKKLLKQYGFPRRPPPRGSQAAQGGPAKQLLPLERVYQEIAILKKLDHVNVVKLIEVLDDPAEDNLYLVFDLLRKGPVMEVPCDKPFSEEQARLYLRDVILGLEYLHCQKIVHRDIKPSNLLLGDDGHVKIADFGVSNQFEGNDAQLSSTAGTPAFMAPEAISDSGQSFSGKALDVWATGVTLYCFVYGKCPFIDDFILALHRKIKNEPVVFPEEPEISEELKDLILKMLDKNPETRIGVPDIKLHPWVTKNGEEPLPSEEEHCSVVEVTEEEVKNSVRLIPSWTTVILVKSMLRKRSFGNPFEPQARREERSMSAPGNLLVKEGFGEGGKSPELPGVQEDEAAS", "settings": "CAMKK1; 1000 nM; read-out: Percent Control"}, "kinome (kinase panel) [29]": {"target": "T29, kinome (kinase panel) (Homo sapiens, UniProt Q96RR4)", "T29 construct": "purchased Eurofins DiscoverX", "T29 sequence (Q96RR4 whole entry)": "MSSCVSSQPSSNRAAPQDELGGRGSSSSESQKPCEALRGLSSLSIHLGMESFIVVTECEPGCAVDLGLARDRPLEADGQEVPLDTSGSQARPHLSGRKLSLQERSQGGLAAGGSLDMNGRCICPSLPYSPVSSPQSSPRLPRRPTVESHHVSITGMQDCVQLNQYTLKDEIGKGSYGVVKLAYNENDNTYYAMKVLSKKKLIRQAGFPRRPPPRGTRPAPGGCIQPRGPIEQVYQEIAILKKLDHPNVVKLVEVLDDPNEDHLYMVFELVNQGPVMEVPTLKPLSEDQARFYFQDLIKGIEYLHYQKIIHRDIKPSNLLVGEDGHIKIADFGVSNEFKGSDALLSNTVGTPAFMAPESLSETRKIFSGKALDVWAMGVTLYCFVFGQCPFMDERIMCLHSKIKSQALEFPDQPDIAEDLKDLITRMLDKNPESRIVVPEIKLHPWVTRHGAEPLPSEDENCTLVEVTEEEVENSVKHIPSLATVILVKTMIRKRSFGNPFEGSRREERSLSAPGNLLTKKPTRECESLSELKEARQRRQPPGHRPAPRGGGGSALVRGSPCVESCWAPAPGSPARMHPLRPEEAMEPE", "settings": "CAMKK2; 1000 nM; read-out: Percent Control"}, "kinome (kinase panel) [30]": {"target": "T30, kinome (kinase panel) (Homo sapiens, UniProt Q9H4B4)", "T30 construct": "purchased Eurofins DiscoverX", "settings": "PLK3; 1000 nM; read-out: Percent Control"}, "kinome (kinase panel) [31]": {"target": "T31, kinome (kinase panel) (Homo sapiens, UniProt Q9P0L2)", "T31 construct": "purchased Eurofins DiscoverX", "settings": "MARK1; 1000 nM; read-out: Percent Control"}, "kinome (kinase panel) [32]": {"target": "T32, kinome (kinase panel) (Homo sapiens, UniProt Q9UKE5)", "T32 construct": "purchased Eurofins DiscoverX", "settings": "TNIK; 1000 nM; read-out: Percent Control"}, "kinome (kinase panel) [33]": {"target": "T33, kinome (kinase panel) (Homo sapiens, UniProt Q9UL54)", "T33 construct": "purchased Eurofins DiscoverX", "settings": "TAOK2; 1000 nM; read-out: Percent Control"}}}
{"molecule": "CN(C)C(=O)c1cc2cnc(Nc3ccc(-c4csc5c(=O)cc(N6CCOCC6)oc45)cc3)nc2n1C1CCCC1", "note": "[SRX3177]", "values": [{"measurement": "remaining binding at 1 µM", "setting": "kinome (kinase panel) [1]", "value": 61, "unit": "%"}, {"measurement": "remaining binding at 1 µM", "setting": "kinome (kinase panel) [2]", "value": 50, "unit": "%"}, {"measurement": "remaining binding at 1 µM", "setting": "kinome (kinase panel) [3]", "value": 100, "unit": "%"}, {"measurement": "remaining binding at 1 µM", "setting": "kinome (kinase panel) [4]", "value": 100, "unit": "%"}, {"measurement": "Percent Control", "setting": "kinome (kinase panel) [5]", "value": 96}, {"measurement": "remaining binding at 1 µM", "setting": "kinome (kinase panel) [5]; read-out: Percent Control", "value": 81, "unit": "%"}, {"measurement": "Percent Control", "setting": "kinome (kinase panel) [6]", "value": 52}, {"measurement": "remaining binding at 1 µM", "setting": "kinome (kinase panel) [6]; read-out: Percent Control", "value": 57, "unit": "%"}, {"measurement": "remaining binding at 1 µM", "setting": "kinome (kinase panel) [7]", "value": 38, "unit": "%"}, {"measurement": "remaining binding at 1 µM", "setting": "kinome (kinase panel) [8]", "value": 49, "unit": "%"}, {"measurement": "remaining binding at 1 µM", "setting": "kinome (kinase panel) [9]", "value": 46, "unit": "%"}, {"measurement": "remaining binding at 1 µM", "setting": "kinome (kinase panel) [10]", "value": 100, "unit": "%"}, {"measurement": "remaining binding at 1 µM", "setting": "kinome (kinase panel) [11]", "value": 82, "unit": "%"}, {"measurement": "remaining binding at 1 µM", "setting": "kinome (kinase panel) [12]", "value": 95, "unit": "%"}, {"measurement": "remaining binding at 1 µM", "setting": "kinome (kinase panel) [13]", "value": 98, "unit": "%"}, {"measurement": "remaining binding at 1 µM", "setting": "kinome (kinase panel) [14]", "value": 85, "unit": "%"}, {"measurement": "remaining binding at 1 µM", "setting": "kinome (kinase panel) [15]", "value": 90, "unit": "%"}, {"measurement": "remaining binding at 1 µM", "setting": "kinome (kinase panel) [16]", "value": 55, "unit": "%"}, {"measurement": "remaining binding at 1 µM", "setting": "kinome (kinase panel) [17]", "value": 89, "unit": "%"}, {"measurement": "remaining binding at 1 µM", "setting": "kinome (kinase panel) [18]", "value": 73, "unit": "%"}, {"measurement": "remaining binding at 1 µM", "setting": "kinome (kinase panel) [19]", "value": 100, "unit": "%"}, {"measurement": "remaining binding at 1 µM", "setting": "kinome (kinase panel) [20]", "value": 40, "unit": "%"}, {"measurement": "remaining binding at 1 µM", "setting": "kinome (kinase panel) [21]", "value": 87, "unit": "%"}, {"measurement": "remaining binding at 1 µM", "setting": "kinome (kinase panel) [22]", "value": 78, "unit": "%"}, {"measurement": "remaining binding at 1 µM", "setting": "kinome (kinase panel) [23]", "value": 37, "unit": "%"}, {"measurement": "remaining binding at 1 µM", "setting": "kinome (kinase panel) [24]", "value": 70, "unit": "%"}, {"measurement": "remaining binding at 1 µM", "setting": "kinome (kinase panel) [25]", "value": 41, "unit": "%"}, {"measurement": "remaining binding at 1 µM", "setting": "kinome (kinase panel) [26]", "value": 86, "unit": "%"}, {"measurement": "remaining binding at 1 µM", "setting": "kinome (kinase panel) [27]", "value": 77, "unit": "%"}, {"measurement": "remaining binding at 1 µM", "setting": "kinome (kinase panel) [28]", "value": 46, "unit": "%"}, {"measurement": "remaining binding at 1 µM", "setting": "kinome (kinase panel) [29]", "value": 36, "unit": "%"}, {"measurement": "remaining binding at 1 µM", "setting": "kinome (kinase panel) [30]", "value": 79, "unit": "%"}, {"measurement": "remaining binding at 1 µM", "setting": "kinome (kinase panel) [31]", "value": 100, "unit": "%"}, {"measurement": "remaining binding at 1 µM", "setting": "kinome (kinase panel) [32]", "value": 95, "unit": "%"}, {"measurement": "remaining binding at 1 µM", "setting": "kinome (kinase panel) [33]", "value": 20, "unit": "%"}]}
